Measurements from the supplement of paper PMC3493320.
Several values for one entry are separate records, joined by “and”; a condition that tells them apart may be missing. Identical values can stand only once.

Test system: NCI-H295R
Test: IC50 (antiproliferative, ATP content)
Conditions: 48 h
Procedure, shortened: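 Serum-free ITS-supplemented DMEM was used to seed 1500 adrenocortical carcinoma cells per well in 1536-well plates, which were cultured overnight. Eight final concentrations of each library compound, from 0.6 nM to 46 µM, were added by pin transfer, followed by 48 h at 37 °C in 5% CO2 and a CellTiter-Glo ATP read after 20 min at room temperature. Luminescence was set against vehicle and positive-control wells, and the IC50 was obtained by logistic curve fitting. Any compound with no concentration response was entered as above the top dose.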

| Compound | IC50 |
| --- | --- |
| OC(=O)[C@]3(C)C[C@H]4/C5=C/C(=O)[C@H]2[C@@](C)(CC[C@@H]1[C@]2(C)CC[C@H](O)C1(C)C)[C@]5(C)CC[C@@]4(C)CC3 | > 46 µM |
| C[C@]12CC[C@@H]3c4ccc(O)cc4CC[C@H]3[C@@H]1CC[C@@H]2OC(=O)CCC1CCCC1 | > 46 µM |

Test system: NCI-H295R
Test: IC50 (antiproliferative, ATP content)
Conditions: 48 h
Remark: another data set of the same source

| Compound | IC50 |
| --- | --- |
| O=C1OCCN1/N=C/c1ccc([N+](=O)[O-])o1 | 16.8 µM |
| COc1cccc2c1C(=O)c1c(O)c3c(c(O)c1C2=O)C[C@@](O)(C(C)=O)C[C@@H]3O[C@H]1C[C@H](N)[C@H](O)[C@H](C)O1 | 10.6 µM |
| [C@@]32([C@@]([C@@H](/C1=C/C(=O)OC1)CC2)([C@H](O)C[C@H]4[C@H]3CC[C@H]9[C@@]4(CC[C@H](O[C@@H]5O[C@@H]([C@H]([C@H](C5)O)O[C@@H]8O[C@@H]([C@@H](O[C@@H]7O[C@@H]([C@@H](O[C@H]6[C@@H]([C@@H](O)[C@@H]([C@H](O6)CO)O)O)[C@H](C7)OC(=O)C)C)C(C8)O)C)C)C9)C)C)O (some centres not stated) | 0.299 µM |
| C[C@H]1CC[C@]2(NC1)O[C@H]1C[C@H]3[C@@H]4CC[C@H]5C[C@@H](O[C@@H]6O[C@H](CO)[C@H](O[C@@H]7O[C@H](CO)[C@@H](O)[C@H](O[C@@H]8OC[C@@H](O)[C@H](O)[C@H]8O)[C@H]7O[C@@H]7O[C@H](CO)[C@@H](O)[C@H](O)[C@H]7O)[C@H](O)[C@H]6O)CC[C@]5(C)[C@H]4CC[C@]3(C)[C@H]1[C@@H]2C | 1.88 µM |
| [Cl-].C/[N+](C)=C1\C=C/C(C=C1)=C(\c2ccc(cc2)N(C)C)c3ccc(cc3)N(C)C | 11.9 µM |

Test system: NCI-H295R
Test: maximal response (efficacy) relative to DMSO (0%) and doxorubicin (-100%); higher = less growth inhibition
Conditions: 48 h

| Compound | maximal response |
| --- | --- |
| O=C1OCCN1/N=C/c1ccc([N+](=O)[O-])o1 | -72.7% |
| COc1cccc2c1C(=O)c1c(O)c3c(c(O)c1C2=O)C[C@@](O)(C(C)=O)C[C@@H]3O[C@H]1C[C@H](N)[C@H](O)[C@H](C)O1 | -126% |
| [C@@]32([C@@]([C@@H](/C1=C/C(=O)OC1)CC2)([C@H](O)C[C@H]4[C@H]3CC[C@H]9[C@@]4(CC[C@H](O[C@@H]5O[C@@H]([C@H]([C@H](C5)O)O[C@@H]8O[C@@H]([C@@H](O[C@@H]7O[C@@H]([C@@H](O[C@H]6[C@@H]([C@@H](O)[C@@H]([C@H](O6)CO)O)O)[C@H](C7)OC(=O)C)C)C(C8)O)C)C)C9)C)C)O (some centres not stated) | -118% |
| C[C@H]1CC[C@]2(NC1)O[C@H]1C[C@H]3[C@@H]4CC[C@H]5C[C@@H](O[C@@H]6O[C@H](CO)[C@H](O[C@@H]7O[C@H](CO)[C@@H](O)[C@H](O[C@@H]8OC[C@@H](O)[C@H](O)[C@H]8O)[C@H]7O[C@@H]7O[C@H](CO)[C@@H](O)[C@H](O)[C@H]7O)[C@H](O)[C@H]6O)CC[C@]5(C)[C@H]4CC[C@]3(C)[C@H]1[C@@H]2C | -127% |
| [Cl-].C/[N+](C)=C1\C=C/C(C=C1)=C(\c2ccc(cc2)N(C)C)c3ccc(cc3)N(C)C | -130% |
| OC(=O)[C@]3(C)C[C@H]4/C5=C/C(=O)[C@H]2[C@@](C)(CC[C@@H]1[C@]2(C)CC[C@H](O)C1(C)C)[C@]5(C)CC[C@@]4(C)CC3 | -50.7% |
| C[C@]12CC[C@@H]3c4ccc(O)cc4CC[C@H]3[C@@H]1CC[C@@H]2OC(=O)CCC1CCCC1 | -33.7% |
| COc1cc(C=C2CCCC(=Cc3ccc(O)c(OC)c3)C2=O)ccc1O | -130% |
| COc1cc(/C=C/C(=O)O[C@H]2CC[C@]34C[C@]35CC[C@]3(C)[C@@H]([C@H](C)CCC=C(C)C)CC[C@@]3(C)[C@@H]5CC[C@H]4C2(C)C)ccc1O | -40.3% |
| Cc1c(C(=O)O)c(O)cc2c1C(=O)c1c(O)c([C@@H]3O[C@H](CO)[C@@H](O)[C@H](O)[C@H]3O)c(O)c(O)c1C2=O | -50.2% |
| CN1CCC(CN2c3ccccc3Sc3ccccc32)C1.Cl (configuration not stated) | -26.6% |
| CCOc1ccc(Cc2nccc3cc(OCC)c(OCC)cc23)cc1OCC.Cl | -39.5% |
| Cl.Cl/C(=C\n1cncn1)c1ccc(Cl)cc1Cl | -28.8% |
| CC(=O)[O][Co][N]1/C2=C(/C)C3=N/C(=C\C4=NC(=C(/C)C5=N[C@H]([C@H](CC(N)=O)[C@@]5(C)CCC(=O)NCC(C)OP(=O)(O)O[C@H]5[C@@H](O)[C@@H](n6cnc7cc(C)c(C)cc76)O[C@@H]5CO)[C@@]1(C)[C@@](C)(CC(N)=O)[C@@H]2CCC(N)=O)/[C@@H](CCC(N)=O)C4(C)C)[C@@H](CCC(N)=O)[C@]3(C)CC(N)=O (some centres not stated) | -34.1% |
| CN1C(=O)C(O)N=C(c2ccccc2)c2cc(Cl)ccc21 (configuration not stated) | -27.8% |
| CCOC(=O)[C@@H](CCc1ccccc1)N[C@@H]1CCc2ccccc2N(CC(=O)O)C1=O.Cl | -30.1% |
| CC1(C)C3=C(C=CC=C3)/C(C2=C1C=CC=C2)=C/CCN(C)C.Cl | -21.5% |
| O=C(C4=CC(OC)=C(C(OC)=C4)OC)O[C@@H]1C[C@@]3([H])[C@@](C[C@](N5C3)([H])C2=C(CC5)C(C=CC=C6)=C6N2)([H])[C@H]([C@](OC)=O)[C@H]1OC | -51.8% |
| CCN(CC)C(=S)SSC(=S)N(CC)CC | -27.3% |
| O=C2O[C@](C#CC3CC3)([C@](F)(F)F)C1=CC(Cl)=CC=C1N2 | -38% |
| COc1cc2c(cc1OC)C(C(C(=O)N(CCc1ccc(OC)c(OC)c1OC)CCc1ccc(OC)c(OC)c1OC)c1ccccc1)=NCC2.Cl (configuration not stated) | -28.4% |
| CCCOc1ccc2[nH]c(NC(=O)OC)nc2c1 | -48.4% |

| Compound | maximal response |
| --- | --- |
| Nc1c(/N=N/c2ccc(-c3ccc(/N=N/c4cc(S(=O)(=O)[O-])c5ccccc5c4N)cc3)cc2)cc(S(=O)(=O)[O-])c2ccccc12.[Na+].[Na+] | -53.2% |
| O=C1C(O)=C([C@H]2CC[C@H](c3ccc(Cl)cc3)CC2)C(=O)c2ccccc21 | -51% |
| COC(=O)Nc1nc2cc(Sc3ccccc3)ccc2[nH]1 | -54.1% |
| CC(C)OC(=O)Nc1ccc2[nH]c(-c3cscn3)nc2c1 | -56.3% |
| COc1cc([C@@H]2c3cc4c(cc3[C@H](O)[C@H]3COC(=O)[C@H]23)OCO4)cc(OC)c1OC | -50.8% |
| O=C1c2ccccc2C(=O)C1c1ccccc1 | -24.9% |
| CNCC/C=C2/C1=C(CCC3=C2C=CC=C3)C=CC=C1.Cl | -38.9% |
| Nc1ccc(C(=O)Nc2ccccc2N)cc1 | -43.9% |
| Cc1ccc2c(Br)cc(Br)c(O)c2n1 | -71.4% |
| O=C(O)c1cc(O)c2c(c1)[C@H]([C@H]1c3cc(C(=O)O)cc(O)c3C(=O)c3c(O[C@@H]4O[C@H](CO)[C@@H](O)[C@H](O)[C@H]4O)cccc31)c1cccc(O[C@@H]3O[C@H](CO)[C@@H](O)[C@H](O)[C@H]3O)c1C2=O | -34.5% |
| O=C1c2cccc(O)c2C(=O)c2c(O)cccc21 | -35.8% |
| O=C(N/N=C/c1ccccc1O)c1ccncc1 | -33.1% |
| CCOC(=O)Oc1c(OC)cc(cc1OC)C(=O)O[C@@H]4C[C@@H]5CN6CC\C3=C(\Nc2cc(OC)ccc23)[C@H]6C[C@@H]5[C@H](C(=O)OC)[C@H]4OC | -30.6% |
| COC(CNC(=O)c1ccccc1OCC(=O)O)[CH2][Hg][OH] (configuration not stated) | 29% |
| COC(=O)C1=C(C)NC(C)=C(C(=O)OC(C)(C)CN(C)CCC(c2ccccc2)c2ccccc2)C1c1cccc([N+](=O)[O-])c1.Cl (configuration not stated) | -45.6% |
| Cl.Cl.O=C1c2c(O)ccc(O)c2C(=O)c2c(NCCNCCO)ccc(NCCNCCO)c21 | -59.3% |
| CN[C@H]1CCc2cc(OC)c(OC)c(OC)c2-c2ccc(OC)c(=O)cc21 | -53.1% |
| CCCCN(CCCC)CC(O)c1cc(Cl)cc2c1-c1ccc(Cl)cc1/C2=C/c1ccc(Cl)cc1 (configuration not stated) | -31.5% |
| CN(C)CCCN1c2ccccc2CCc2ccc(Cl)cc21 | -31.2% |
| O=[N+]([O-])c1cc(I)c(O)c(I)c1 | -32.6% |
| Nc1nc(Cl)nc2c1ncn2[C@@H]1O[C@H](CO)[C@@H](O)[C@@H]1F | -29.5% |
| COC(=O)Nc1nc2cc(C(=O)c3cccs3)ccc2[nH]1 | -53.8% |

| Compound | maximal response |
| --- | --- |
| NC(=O)N/N=C/c1ccc([N+](=O)[O-])o1 | -20.7% |
| O[C@@]1(CC)C[C@H](C2)C[C@@]([C@]7=C(OC)C=C6N(C)[C@]5([H])[C@@](C6=C7)(CC9)[C@](N9CC=C8)([H])[C@]8(CC)[C@@H](OC(C)=O)[C@@](O)5[C@@](OC)=O)([C@](OC)=O)C(NC4=CC=CC=C34)=C3CCN2C1.O=S(O)(O)=O | -54.7% and -52.9% |
| [O-][n+]1ccccc1SSc1cccc[n+]1[O-] | -23.5% |
| O=[C@@](OC)[C@](C(N3)=C(C4)C2=C3C=CC=C2)([C@@]5=CC([C@]69[C@]8([H])[C@](C=CCN8CC9)(CC)[C@@H](OC(C)=O)[C@](O)([C@](OC)=O)[C@@]([H])6N7C)=C7C=C5OC)C[C@]1([H])C=C(CC)CN4C1.O=C(O)C(O)C(O)C(O)=O.O=C(O)C(O)C(O)C(O)=O | -56.6% |
| O=C([O-])C1=C(CSc2nnnn2CS(=O)(=O)[O-])CS[C@@H]2[C@H](NC(=O)[C@H](O)c3ccccc3)C(=O)N12.[Na+].[Na+] | 25.5% |
| Cc1cc2nc3c(=O)[nH]c(=O)nc-3n(C[C@H](O)[C@H](O)[C@H](O)COP(=O)([O-])OP(=O)([O-])OC[C@H]3O[C@@H](n4cnc5c(N)ncnc54)[C@H](O)[C@@H]3O)c2cc1C.[Na+].[Na+] | 22% |
| CCC(NC(C)C)C(O)c1ccc(O)c(O)c1.CS(=O)(=O)O (configuration not stated) | -36% |
| CC(C)(COP(=O)([O-])OP(=O)([O-])OC[C@H]1O[C@@H](n2cnc3c(N)ncnc32)[C@H](O)[C@@H]1OP(=O)([O-])O)C(O)C(=O)NCCC(=O)NCCS.O.O.[Li+].[Li+].[Li+] (some centres not stated) | 33% |
| CC(=O)O[C@H]\1CC[C@H]4C(=C/1)/CC[C@@H]2[C@@H]4CC[C@]3(C)[C@@](CC[C@@H]23)(C#C)OC(C)=O | -26.3% |
| N[C@H](C(=O)O)[C@@H]1CC(Cl)=NO1 | -39.1% |
| CCNC(=O)N1CCN(CCCC(c2ccc(F)cc2)c2ccc(F)cc2)CC1.Cl | -34.2% |
| O=[N+]([O-])c1c(Cl)cccc1-c1c[nH]cc1Cl | -29.2% |
| CN(C)CCCN1c2ccccc2CCc2ccccc21 | -21% |
| CCC(CC)(CC(=O)Nc1cccc(/C=C/c2nc(C3CCC3)cs2)c1)C(=O)O | -34.3% |
| C[C@@H]1CCC2[C@@H](C)[C@@H](O)O[C@@H]3O[C@@]4(C)CC[C@@H]1[C@@]23OO4 (some centres not stated) | -56.4% |
| O=C(N)[C@@](C2=CC=CC=C2)([C@H]3CN(CCC4=CC(CCO5)=C5C=C4)CC3)C1=CC=CC=C1.Br | -31.7% |
| Cl.Cl.OCCN1CCN(CCCN2c3ccccc3C=Cc3ccccc32)CC1 | -69.8% |
| Oc1ccc(Cl)c2cccnc12 | -33.2% |
| COc1c(C)c2c(c(O)c1C/C=C(\C)CCC(=O)O)C(=O)OC2 | -29.5% |
| Clc1ccc(C(Cn2ccnc2)OCc2csc3c(Cl)cccc23)c(Cl)c1.O=[N+]([O-])O (configuration not stated) | -24.9% |
| CC(C)c1c(C(=O)Nc2ccccc2)c(-c2ccccc2)c(-c2ccc(F)cc2)n1CC[C@@H](O)C[C@@H](O)CC(=O)[O-].CC(C)c1c(C(=O)Nc2ccccc2)c(-c2ccccc2)c(-c2ccc(F)cc2)n1CC[C@@H](O)C[C@@H](O)CC(=O)[O-].[Ca+2] | -29.1% |
